Results from paper PMC4913735, “Non‐glycosidic compounds can stimulate both human and mouse iNKT cells” (European Journal of Immunology, 2016).

Assays:
[1] = system: OVA‐specific CD8+ T cells; experiment: OVA‐specific CD8+ T‐cell response after OVA plus lipid i.v. (H‐2Kb/OVA257–264 tetramer); assay type: in vivo, mice
Protocol: In order to assess the downstream effect of treatment with low concentrations of lipid in vivo, mice were injected with the model antigen OVA together with two different doses of ThrCer 6 and α‐GalCer. Seven days later, OVA‐specific CD8^+ T cells were detected in the blood by H‐2 K^b/OVA257–264 tetramer staining of CD8^+ T cells.
(A and B) Mice were given 400 μg OVA together with i.v. injection of vehicle or 10 or 750 ng of either α‐GalCer or ThrCer 6. OVA‐specific CD8^+ T cells were enumerated in the blood using tetrameric H‐2K^b/OVA257–264 flow cytometry at (A) day 7 and at (B) day 12. Each square or circle represents the data for a single mouse (n = 4–6/group). Data shown as mean ± SEM and are representative of three independent experiments. **p = 0.0012, *p = 0.0114; Student's t‐test.
Mice were bled on day 7 post immunization of lipids and peripheral blood lymphocytes (PBL) stained with tetrameric H‐2 K^b/OVA257–264 peptide complexes, as previously described 27. A representative tetramer staining is shown in Supporting Information Figure 4.

iNKT hybridoma DN32.D3 = experiment: Lipid‐pulsed, washed BMDC stimulation of iNKT hybridoma DN32.D3 (IL‐2); assay type: cell-based, mouse; conditions: 10 and 1 ng agonist; up to 24 h after wash; compared with α‐GalCer
Protocol: The difference between the functional activity of ThrCer 6 and α‐GalCer, particularly noticeable at low concentrations, may be accounted for by differences in their bioavailability. To address this possibility, bone marrow (BM) derived DC were incubated with a range of different iNKT‐cell agonists at different concentrations overnight, then washed and incubated with fresh media for increasing lengths of time. Lipid‐pulsed DC were then used to stimulate the iNKT‐hybridoma DN32.D3 (Fig. 6A). […] The difference between the ThrCer 6 and ThrCer 7 analogs and α‐GalCer started to be evident as early as 3 h after lipid‐pulsed DC were washed (Fig. 6A).
Figure 6 Enhanced bioavailability of ThrCer 6 as compared to ThrCer and α‐GalCer. (A) Mouse BMDCs were pulsed for 6 h with 100, 10, or 1 ng/mL of indicated iNKT‐cell agonists. […] Diminished bioavailability is expressed as a percentage of the maximum DN32.D3 activation by each iNKT‐cell agonist. […] (B) IL‐2 in the supernatant from coculture of DN32.D3 with CD11c^+ cells isolated after 64 h was determined by ELISA. […] Significance was calculated between α‐GalCer and ThrCer 6. *p < 0.05, **p < 0.01, ***p < 0.001, ****p < 0.0001; Student's t‐test.
Levels of iNKT‐cell agonists, presented by CD1d on the surface of cells, were assessed by the amount of IL‐2 secreted by iNKT hybridoma DN32.D3 coincubated with the presenting cells for 17–24 h. […]

CCCCCCCCCCCCCCCCCCCCCCCCCC(=O)N[C@@H](CO[C@H]1CC[C@H](O)[C@H](O)[C@H]1O)[C@H](O)[C@H](O)CCCCCCCCCCCCCC [ThrCer 6]
Frequency of OVA‐specific CD8+ T cells, 10 ng lipid ([1]; 10 ng i.v. with 400 μg OVA, day 7, compared with 10 ng α‐GalCer): statistically significant higher frequency
Frequency of OVA‐specific CD8+ T cells, 10 ng lipid, day 12 ([1]; 10 ng i.v. with OVA, day 12, higher frequency than α‐GalCer): persisted at day 12
Activation of DN32.D3 by lipid‐pulsed, washed BMDC (iNKT hybridoma DN32.D3): enhanced ability to activate DN32.D3
